Test results taken from patent publication US20020198219A1, “2-pyridinamine compositions and related methods” (priority 2000, published 2002).

What was measured:
[1] = system: differentiated P19 neurons; assay: Differentiated P19 excitotoxicity assay (glutamate/glycine-induced death, Alamar Blue); format: cell-based, murine
Procedure: Alamar Blue fluorescence, an indicator of cell viability, was used to determine cell viability after an NMDA-induced cytotoxic insult. […] However, since raw fluorescence counts vary from experiment to experiment, FIGS. 2A, 2B, and 2C are expressed as a percent of control.
(§1) Glutamate toxicity dose response in the presence of a constant 1 mM glycine concentration was measured in the differentiated P19 neurons. The curve generated through the data points is the average of 6 separate dose response curves. Data points are represented as the percent of control cells ±standard error. % control=(([Glutamate]exp−[Glutamate]max)/(Controlvehicle−[Glutamate]max))×100.
Data points are the average ±standard error of three separate experiments.
These cells were used to measure the effects of various known kinase inhibitors (Compound Identification (ID) column in Table I) upon cytotoxicity-induced by NMDA. First, P19 cells were differentiated as described in Example 2. Then cells were exposed to 3 mM of glutamate in the presence of 1 mM glycine.
Cell viability was determined. Compounds that prevented excitotoxicity were determined by measuring the percentage of viable cells compared to differentiated P19 cells that were not presented with a toxic insult (Table I).
Cell viability was measured using two methods. The first method was a confocal, single-cell fluorescence imaging-based method using the live cell dye carboxy-fluorescein diacetate (CFDA). CFDA labels the cell bodies and processes of living cells. […] CFDA fluorescence was measured using a modified Attofluor Imager device (Atto Instruments, Rockville Pike, Md.). Cells were labeled with 1 uM CFDA for 15 min in media, then placed onto the stage of the Attofluor microscope. The dye was excited by light from a mercury lamp source passed through a 488 nm bandpass filter of 10 nm band width, passed through a CARV real-time confocal spinning disk module (Atto Instruments, Rockville, Md.), and then passed through a 40× oil immersion objective (Zeiss Fluar, NA=1.3). Emitted light was transmitted through a 495 nm dichroic mirror, collected to an Attofluor intensified CCD camera, and images were visualized using Attofluor RatioVision software (Atto Instruments, Rockville, Md.).
The second method for measuring cell viability was a plate reader method. Cells plated into black 96 well plates (Packard viewplates) are loaded with 5% Alamar Blue dye (Biosource International). Alamar Blue is a dye that takes advantage of mitochondrial reductases to convert non-fluorescent resazurin to fluorescent resorufin (excitation 535 nm, emission 580 nm). Baseline fluorescence counts were read at room temperature in a Wallac plate reader immediately after addition of Alamar blue. Fluorescence counts of cell viability were taken the same way after 1 hour incubation at 37° C. Fluorescence was expressed as a percent of control, untreated cells after subtraction of background fluorescence. Live/dead cells were confirmed visually with a light microscope. […]

[2] = system: differentiated P19 neurons; assay: Drug screening using differentiated P19 cell assay (neuroprotection against glutamate/glycine); format: cell-based, murine; settings: for IC50: dose response 0.005-3 μM, 3 mM glutamate + 1 mM glycine, >1 = no maximum within highest dose (3 μM); for % neuroprotection (cell survival relative to control): screened at 1 micromolar, percentage of control cells surviving after 24 hours
Procedure: Commercially available chemical libraries (BioFocus PLC, UK) were screened using the methods described herein. The stock concentration of the compounds was about 400 μM in DMSO. The concentration of compounds used in the primary screen was 1 μM. […] Columns 4-11 received compounds at the following final concentrations (μM): 3, 1.2, 0.48, 0.192, 0.077, 0.031, 0.012 and 0.005. Each row contained a different compound for confirmation. Only rows B-G received compounds, and rows A and H remained untreated. Data are expressed as % neuroprotection=((compound-glutamate average)/(U0126-glutamate average)×100).
Only the 2-pyridinamines are the subject of this invention, although limited data for 4-pyrimidinamines are presented as well. “% Inh” indicates the percentage of control cells surviving after 24 hours, and represents the neuroprotective effect of the compounds screened at 1 micromolar concentration. IC50 relate to data from dose response experiments. […] ND refers to compounds not tested in dose-response experiments. […]

P19 neurons = settings: mouse, 1 mM
Procedure: as §1

Row | SMILES | IC50 [2] | % neuroprotection (cell survival relative to control) [2] | also measured
1 | N[C@@H](CCC(=O)O)C(=O)O [Glutamate] | – | – | reduction in Alamar blue fluorescence ([1]; 3 mM glutamate and 1 mM glycine for 24 hours): 60%; EC50 ([1]; constant 1 mM glycine, 24 hours, average of 6 curves, read-out: Glutamate toxicity EC50): 8100 nM
2 | CCn1c2ccccc2c2cc(Nc3ccc(-c4ccc(N5CCOCC5)cc4)cn3)ccc21 [Cmpd 77] | – | 82% | –
3 | CCCCCOc1ccc(Nc2ccc(-c3ccc(N(C)C)cc3)cn2)cc1 [Cmpd 7, 2-pyridinamine, 5-[4-(dimethylamino)phenyl]-N-[4-(pentyloxy)phenyl]-] | – | 88% | IC50 ([2]; Mus musculus, Neuron): 240 nM
4 | COc1cc(Nc2cccc(-c3ccc(C)c(C)c3)n2)cc(OC)c1OC [Cmpd 126, 2-pyridinamine, 6-(3,4-dimethylphenyl)-N-(3,4,5-trimethoxyphenyl)-] | – | 90% | IC50 ([2]; Mus musculus, Neuron): 80 nM
5 | COc1cc(Nc2cccc(-c3ccccc3)n2)cc(OC)c1OC [Cmpd 122, 2-pyridinamine, 6-phenyl-N-(3,4,5-trimethoxyphenyl)-] | – | 84% | IC50 ([2]; Mus musculus, Neuron): 7 nM
6 | CCCCCOc1ccc(Nc2ccc(-c3ccc(CCC(=O)O)cc3)cn2)cc1 [Cmpd 10, benzenepropanoic acid, 4-[6-[[4-(pentyloxy)phenyl]amino]-3-pyridinyl]-] | – | 105% | IC50 ([2]; Mus musculus, Neuron): 230 nM
7 | Cc1ccc(-c2ccc(Nc3ccc(N4CCOCC4)cc3)nc2)cc1C [Cmpd 80] | 750 nM | 94% | –
8 | COc1ccc(Nc2ccc(-c3ccc(C)c(C)c3)cn2)cc1 [Cmpd 86] | > 1000 nM | 80% | –
9 | COc1ccc(Nc2cccc(-c3ccc4ccccc4c3)n2)c(C)c1OC [Cmpd 136] | – | 86% | IC50 ([2]; Mus musculus, Neuron): > 1000 nM
10 | CN(C)c1cccc(Nc2ccc(-c3ccc(N4CCN(C(=O)OC(C)(C)C)CC4)cc3)cn2)c1 [Cmpd 38] | – | 89% | –
11 | COc1ccc(Nc2ccc(-c3ccc(N4CCOCC4)cc3)cn2)cc1 [Cmpd 83] | – | 71% | –
12 | COc1ccc(Nc2cccc(-c3cccc(N)c3)n2)cc1 [Cmpd 100] | – | 79% | –
13 | CN(C)c1cccc(-c2ccc(Nc3ccc4c(c3)OCCO4)nc2)c1 [Cmpd 76] | – | 95% | –
14 | COc1ccc(Nc2cccc(-c3ccc(N(C)C)cc3)n2)cc1 [Cmpd 98] | – | 71% | –
15 | COc1ccc(Nc2ccc(-c3ccc(OC(F)(F)F)cc3)cn2)cc1 [Cmpd 3] | 510 nM | 94% | –
16 | COc1cc(Nc2cccc(/C=C/c3ccccc3)n2)cc(OC)c1OC [Cmpd 144, 2-pyridinamine, 6-[(E)-2-phenylethenyl]-N-(3,4,5-trimethoxyphenyl)-] | – | 110% | IC50 ([2]; Mus musculus, Neuron): 30 nM

Row | SMILES | IC50 [2] | % neuroprotection (cell survival relative to control) [2] | also measured
17 | COc1cc(Nc2ccc(-c3ccc(N4CCN(C(=O)OC(C)(C)C)CC4)cc3)cn2)cc(OC)c1OC [Cmpd 40] | – | 77% | –
18 | COc1cc(Nc2cccc(-c3ccc4c(c3)OCO4)n2)cc(OC)c1OC [Cmpd 120, 2-pyridinamine, 6-(1,3-benzodioxol-5-yl)-N-(3,4,5-trimethoxyphenyl)-] | – | 97% | IC50 ([2]; Mus musculus, Neuron): 50 nM
19 | COc1cc(Nc2cccc(-c3ccc(N4CCOCC4)cc3)n2)cc(OC)c1OC [Cmpd 106] | 660 nM | 84% | –
20 | CC(C)(C)OC(=O)N1CCN(c2ccc(-c3ccc(Nc4ccc5c(c4)OCCO5)nc3)cc2)CC1 [Cmpd 69] | – | 99% | –
21 | COc1ccc(Nc2ccc(-c3cccc(OC(F)(F)F)c3)cn2)cc1 [Cmpd 18] | – | 74% | –
22 | CCOc1cccc(-c2ccc(Nc3ccc4c(c3)OCCO4)nc2)c1 [Cmpd 73] | – | 76% | –
23 | CCCCCOc1ccc(Nc2ccc(-c3cccc(N(C)C)c3)cn2)cc1 [Cmpd 75] | – | 88% | –
24 | NCC(=O)O [Glycine] | – | – | effect on basal P19 neuron viability (P19 neurons): did not affect P19 neuron viability
25 | CCn1c2ccccc2c2cc(Nc3cccc(-c4cccc(N(C)C)c4)n3)ccc21 [Cmpd 104, 9H-carbazol-3-amine, N-[6-[3-(dimethylamino)phenyl]-2-pyridinyl]-9-ethyl-] | – | 89% | IC50 ([2]; Mus musculus, Neuron): 90 nM
26 | CCn1c2ccccc2c2cc(Nc3cccc(-c4cncc(OC)c4)n3)ccc21 [Cmpd 134] | 1590 nM | 92% | –
27 | [Li] [Lithium] | – | – | Emax ([1]; Mus musculus, Neuron, 3 mM glutamate + 1 mM glycine, read-out: Maximal Efficacy for Neuroprotection): < 10%
28 | COc1cc(Nc2cccc(-c3cc4ccccc4o3)n2)cc(OC)c1OC [Cmpd 110] | 140 nM | 91% | –
29 | COc1cc(Nc2cccc(-c3cccc(OC(F)(F)F)c3)n2)cc(OC)c1OC [Cmpd 118, 2-pyridinamine, 6-[3-(trifluoromethoxy)phenyl]-N-(3,4,5-trimethoxyphenyl)-] | – | 91% | IC50 ([2]; Mus musculus, Neuron): 50 nM
30 | C(=C\c1ccc(Nc2ccc3c(c2)OCCO3)nc1)/c1ccccc1 [Cmpd 88, 2-pyridinamine, N-(2,3-dihydro-1,4-benzodioxin-6-yl)-5-[(E)-2-phenylethenyl]-] | – | 85% | IC50 ([2]; Mus musculus, Neuron): 230 nM
31 | COc1ccc(Nc2cccc(-c3ccco3)n2)cc1 [Cmpd 131] | – | 95% | IC50 ([2]; Mus musculus, Neuron): 240 nM

Second part, led by results:

Row | IC50 [2] | SMILES | % neuroprotection (cell survival relative to control) [2] | also measured
32 | 330 nM | CCn1c2ccccc2c2cc(Nc3cccc(-c4cccc(N)c4)n3)ccc21 [Cmpd 99] | 105% | –
33 | 650 nM | COc1cc(Nc2cccc(-c3ccc(-c4ccccc4)cc3)n2)cc(OC)c1OC [Cmpd 121] | 96% | –
34 | > 1000 nM | CCCCCOc1ccc(Nc2ccc(-c3cccc(N)c3)cn2)cc1 [Cmpd 36] | 98% | –
35 | 850 nM | COc1ccc(Nc2cccc(-c3ccc(OC)c(OC)c3)n2)cc1 [Cmpd 130] | 96% | –
36 | 560 nM | COc1ccc(Nc2ccc(-c3ccc(O)cc3)cn2)cc1 [Cmpd 2] | 94% | –
37 | 284 nM | c1cc2c(cc1Nc1ccc(-c3ccc(N4CCOCC4)cc3)cn1)OCCO2 [Cmpd 5] | 80% | –
38 | 560 nM | CCCCCOc1ccc(Nc2ccc(-c3ccc(O)cc3)cn2)cc1 [Cmpd 9] | 84% | –
39 | 1540 nM | COc1ccc(Nc2cccc(-c3ccc(C)c(C)c3)n2)cc1 [Cmpd 128] | 84% | –
40 | > 1000 nM | Clc1ccc(-c2ccc(Nc3ccc(N4CCOCC4)cc3)nc2)cc1 [Cmpd 29] | 82% | –
41 | > 1000 nM | c1cc(N2CCOCC2)ccc1Nc1ccc(-c2ccc3c(c2)OCO3)cn1 [Cmpd 30] | 84% | –
42 | 900 nM | COc1cc(Nc2cccc(-c3cc(OC)c(OC)c(OC)c3)n2)cc(OC)c1OC [Cmpd 112] | 90% | –
